# Test results reported in US10682320B2, “Method for inhibiting osteoclast development” (West Virginia University, priority 2012, dated 2020).
# How the values were obtained:
# [1] = biological target: T1, STIM I (Homo sapiens, UniProt Q13586); assay: STIM I puncta formation in HEK293 cells transfected with YFP-STIM I; assay type: cell-based; details: 2 μM thapsigargin, 16 minute period
# T1 construct: expressed in transfected cells; host or cells: HEK293
# Protocol: HEK293 cells, maintained in DMEM with 10% FBS, were transfected with YFP-STIM I using Lipofectamine 2000 (Invitrogen, Carlsbad, Calif.) for 5 h (37° C.; 5% CO2) followed by a 24-h recovery. Cells were placed in 140 mM NaCl, 5 mM KCl, 1 mM MgCl2, 10 mM glucose, 15 mM HEPES, 0.1% BSA, 2 mM CaCl2 and analyzed by confocal microscopy for STIM I puncta formation using a Nikon phase-fluorescence microscope with CCD detectors (Diagnostic instruments, Sterling Heights, Mich.). Phase or transmitted light microscopy used 10-40× objectives and red, green, and blue filters to assemble color images. Fluorescence images used 1.4 NA 40× oil objectives. Red fluorescence used excitation at 530-560 nm, a 575 nm dichroic minor, and 580-650 nm emission filter. Transfection data were analyzed using Nikon NIS Elements Imaging Software. The effect of DCPA on STIM I/Orai I association was determined in wild-type HEK293 cells transfected with STIM I-YFP as described in Wang Y, Deng X, Zhou Y, Hendron E, Mancarelia S, Ritchie M F, Tang X D, Baba Y, Kurosaki T, Mori Y, Soboloff J, Gill DL, “STIM protein coupling in the activation of Orai channels”, Proc Natl Acad Sci USA, Vol. 106, pages 7391-7396, 2009. Experiments were performed on a Leica DMI 6000B fluorescence microscope controlled by Slidebook Software (Intelligent Imaging Innovations, Denver, Colo.). […]
# [2] = biological target: T2, CRAC channel (Orai I / STIM I) (Homo sapiens, UniProt Q13586); assay: Whole cell CRAC current (Icrac) in HEK293 cells expressing Orai I and YFP-STIM I; assay type: cell-based; details: whole cell clamp
# T2 construct: expressed in transfected cells; host or cells: HEK293
# Protocol: Analysis was performed in HEK293 cells stably expressing Orai I and transfected with STIM I YFP used conventional whole cell voltage recordings as described (see, Wang Y, Deng X, Zhou Y, Hendron E, Mancarelia S, Ritchie M F. Tang X D, Baba Y, Kurosaki T, Mori Y, Soboloff J, Gill D L., “STIM protein coupling in the activation of Orai channels”, Proc Natl Acad Sci USA Vol. 106, pages 7391-7396, 2009). Immediately after establishment of the whole-cell electrode seal, voltage ramps spanning from—100 to +100 mV in 50 msec were delivered from a holding potential of 0 mV at a rate of 0.5 Hz. A 10 mV junction potential compensation was applied. […]
# The haloanilide DCPA blocks store-operated Ca^2+ channel function in Jurkat cells with no effect on ER Ca^2+ content. […] To address this, the present inventor examined HEK293 cells stably expressing Orai I and transiently transfected with YFP-STIMI and measured the effect of DCPA on CRAC current or Icrac. CRAC channel activity was measured in the whole cell clamp position after passively depleting Ca^2+ stores via the presence of 10 mM EGTA in the patch pipette. […]
# T2 sequence (Q13586 23-685): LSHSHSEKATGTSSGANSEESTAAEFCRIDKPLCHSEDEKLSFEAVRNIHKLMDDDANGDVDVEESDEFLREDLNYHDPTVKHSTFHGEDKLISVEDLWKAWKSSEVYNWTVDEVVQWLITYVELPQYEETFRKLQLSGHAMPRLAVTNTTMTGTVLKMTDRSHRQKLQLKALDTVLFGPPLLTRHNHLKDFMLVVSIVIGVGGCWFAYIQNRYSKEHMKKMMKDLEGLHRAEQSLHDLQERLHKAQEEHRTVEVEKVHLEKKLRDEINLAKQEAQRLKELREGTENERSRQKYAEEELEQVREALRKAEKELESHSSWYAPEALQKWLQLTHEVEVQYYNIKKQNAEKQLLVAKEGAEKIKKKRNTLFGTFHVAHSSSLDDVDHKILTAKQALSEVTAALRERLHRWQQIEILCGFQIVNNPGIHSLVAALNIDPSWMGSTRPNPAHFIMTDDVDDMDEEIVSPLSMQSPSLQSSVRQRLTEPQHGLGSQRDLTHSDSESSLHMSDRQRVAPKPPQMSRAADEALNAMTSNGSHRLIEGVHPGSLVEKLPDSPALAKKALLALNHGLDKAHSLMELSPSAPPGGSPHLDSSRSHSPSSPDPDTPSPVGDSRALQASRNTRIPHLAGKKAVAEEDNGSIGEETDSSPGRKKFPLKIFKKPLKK
# T1 sequence (Q13586 23-685): as above
smiles,measurement,setting,value
"CCC(=O)Nc1ccc(Cl)c(Cl)c1 [DCPA, N-(3,4-dichlorophenyl)propanamide]",STIM I puncta formation after store depletion,[1],dramatically inhibited
same,current-voltage relationship versus control cells,[2],did not show significant differences
same,time for CRAC current to return to baseline after break-in,[2]; 10 mM EGTA in pipette,less than 4 minutes
